Results taken from patent US8193191B2, “Urotensin II receptor antagonists” (Janssen Pharmaceutica N.V., priority 2006, dated 2012).
pIC50, pKi: −log10 of the molar value. Like-named read-outs stand apart in the source and are kept apart here.

Experiments:
[1] = biological target: T1, rat GPR14 (U-II receptor) (Rattus norvegicus, UniProt P49684); test: Rat UII Calcium Mobilization FLIPR Assay; format: cell-based; conditions: average value for the compound tested; read-out: Rat UII FLIPR Average IC50
T1 construct: expressed in transfected cells
T1 sequence (P49684 1-386): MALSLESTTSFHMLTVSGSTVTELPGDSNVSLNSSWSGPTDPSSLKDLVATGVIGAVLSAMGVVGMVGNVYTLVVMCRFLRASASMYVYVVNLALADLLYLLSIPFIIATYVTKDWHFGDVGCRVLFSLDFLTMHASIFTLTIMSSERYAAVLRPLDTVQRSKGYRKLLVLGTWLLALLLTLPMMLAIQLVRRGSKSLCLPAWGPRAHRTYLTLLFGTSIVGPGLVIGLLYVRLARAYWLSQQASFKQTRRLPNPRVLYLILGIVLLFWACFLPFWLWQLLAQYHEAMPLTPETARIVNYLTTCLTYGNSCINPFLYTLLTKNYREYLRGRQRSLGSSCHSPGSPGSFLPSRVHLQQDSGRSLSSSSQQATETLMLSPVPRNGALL
Outline: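 Fluorescent calcium signals were recorded at room temperature (23° C) by FLIPR. Stable rat U-II receptor CHO lines had been dye-loaded for 1 h at 37° C in pH 7.4 HBSS containing 20 mM HEPES, 0.1% BSA and 2.5 mM probenecid.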

[2] = biological target: T2, Human UII receptor, 6D9 human rhabdomyosarcoma cells (Homo sapiens, UniProt Q9UKP6); test: Human UII Calcium Mobilization Assay; format: cell-based; conditions: average value, FLIPR TETRA, read-out: Human UII Ca^+ Mobilization Average IC50
T2 construct: 6D9: isolated by dilution subcloning of RMS13 cells, ATCC® Number: CRL-2061; host or cells: 6D9 human rhabdomyosarcoma cells (subclone of RMS13)
T2 sequence (Q9UKP6 1-389): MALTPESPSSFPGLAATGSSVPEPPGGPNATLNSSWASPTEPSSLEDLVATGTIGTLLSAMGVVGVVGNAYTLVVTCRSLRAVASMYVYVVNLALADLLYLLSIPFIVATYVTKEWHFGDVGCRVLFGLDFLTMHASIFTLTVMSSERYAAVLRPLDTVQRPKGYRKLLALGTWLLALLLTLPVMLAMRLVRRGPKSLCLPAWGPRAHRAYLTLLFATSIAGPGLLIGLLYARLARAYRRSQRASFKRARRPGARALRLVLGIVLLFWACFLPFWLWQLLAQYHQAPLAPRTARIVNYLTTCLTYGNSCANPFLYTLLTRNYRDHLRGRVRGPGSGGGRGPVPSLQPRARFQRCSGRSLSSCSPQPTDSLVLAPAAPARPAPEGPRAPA
Outline: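 FLIPR calcium responses were recorded for 4 minutes after room-temperature addition of test antagonist and U-II, in dye-loaded human 6D9 cells (37° C, 45 min; HBSS/HEPES with probenecid 1.25 mM). Compounds serially diluted in HBSS/HEPES, up to 0.1% DMSO; curves gave IC50 and EC50.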

[3] = biological target: T3, endogenous human UII receptor (Homo sapiens, UniProt Q9UKP6); test: Human Radioligand Binding Assay ((^125I)-U-II binding to human skeletal muscle myoblasts)
T3 sequence (Q9UKP6 1-389): T2 sequence (Q9UKP6 1-389)

pIC50 [1]	pIC50 [2]	pKi [3]	SMILES	pKi ([3]; read-out: Human UII Average Binding Ki, average value, (^125I)-U-II binding to human skeletal muscle myoblasts (HSMM), 25° C., 3 h)
7.85	6.00	7.13	COc1ccc([C@@H](CCCNC(=O)c2cccnc2)N2C(=O)c3cccc(N4CCN([C@H](C)c5ccccc5)CC4)c3C2=O)cc1OC [Cpd 151, (R)-N-(4-(3,4-dimethoxy-phenyl)-4-{1,3-dioxo-4-[4-(1R)-(1-phenyl-ethyl)-piperazin-1-yl]-1,3-dihydro-isoindol-2-yl}-butyl)-nicotinamide]	
7.59	5.59	6.29	COc1ccc([C@@H](CCCNC(C)=N)N2C(=O)c3cccc(N4CCN([C@H](C)c5ccccc5)CC4)c3C2=O)cc1OC [Cpd 166, (R)-N-(4-(3,4-dimethoxy-phenyl)-4-{1,3-dioxo-4-[4-(1R)-(1-phenyl-ethyl)-piperazin-1-yl]-1,3-dihydro-isoindol-2-yl}-butyl)-acetamidine]	
8.21	6.54	7.70	COc1ccc([C@@H](CCCNC(=O)c2cn[nH]c2)N2C(=O)c3cccc(N4CCN([C@H](C)c5ccccc5)CC4)c3C2=O)cc1OC [Cpd 190, (R)-1H-pyrazole-4-carboxylic acid (4-(3,4-dimethoxy-phenyl)-4-{1,3-dioxo-4-[4-(1R)-(1-phenyl-ethyl)-piperazin-1-yl]-1,3-dihydro-isoindol-2-yl}-butyl)-amide]	
7.92	6.01	7.39	COc1ccc([C@@H](CCCNC(=O)CC(C)C)N2C(=O)c3cccc(N4CCN([C@H](C)c5ccccc5)CC4)c3C2=O)cc1OC [Cpd 181, (R)-N-(4-(3,4-dimethoxy-phenyl)-4-{1,3-dioxo-4-[4-(1R)-(1-phenyl-ethyl)-piperazin-1-yl]-1,3-dihydro-isoindol-2-yl}-butyl)-3-methyl-butyramide]	
7.46	6.37	6.77	COc1ccc([C@@H](CCCNC(=O)c2cc(C)c(C)o2)N2C(=O)c3cccc(N4CCN([C@H](C)c5ccccc5)CC4)c3C2=O)cc1OC [Cpd 162, (R)-4,5-dimethyl-furan-2-carboxylic acid (4-(3,4-dimethoxy-phenyl)-4-{1,3-dioxo-4-[4-(1R)-(1-phenyl-ethyl)-piperazin-1-yl]-1,3-dihydro-isoindol-2-yl}-butyl)-amide]	
7.92	6.40	6.85	COc1ccc([C@@H](CCCNC(=O)c2ccnnc2)N2C(=O)c3cccc(N4CCN([C@H](C)c5ccccc5)CC4)c3C2=O)cc1OC [Cpd 160, (R)-pyridazine-4-carboxylic acid (4-(3,4-dimethoxy-phenyl)-4-{1,3-dioxo-4-[4-(1R)-(1-phenyl-ethyl)-piperazin-1-yl]-1,3-dihydro-isoindol-2-yl}-butyl)-amide]	
7.89	5.92	7.08	COc1ccc([C@@H](CCCNC(=O)c2ccncc2)N2C(=O)c3cccc(N4CCN([C@H](C)c5ccccc5)CC4)c3C2=O)cc1OC [Cpd 154, (R)-N-(4-(3,4-dimethoxy-phenyl)-4-{1,3-dioxo-4-[4-(1R)-(1-phenyl-ethyl)-piperazin-1-yl]-1,3-dihydro-isoindol-2-yl}-butyl)-isonicotinamide]	
7.72	6.20	6.92	COc1ccc([C@@H](CCCNC(=O)c2nccn2C)N2C(=O)c3cccc(N4CCN([C@H](C)c5ccccc5)CC4)c3C2=O)cc1OC [Cpd 161, (R)-1-methyl-1H-imidazole-2-carboxylic acid (4-(3,4-dimethoxy-phenyl)-4-{1,3-dioxo-4-[4-(1R)-(1-phenyl-ethyl)-piperazin-1-yl]-1,3-dihydro-isoindol-2-yl}-butyl)-amide]	
7.42	6.07	7.13	COc1ccc([C@@H](CCCNC(=O)c2ccccn2)N2C(=O)c3cccc(N4CCN([C@H](C)c5ccccc5)CC4)c3C2=O)cc1OC [Cpd 150, (R)-pyridine-2-carboxylic acid (4-(3,4-dimethoxy-phenyl)-4-{1,3-dioxo-4-[4-(1R)-(1-phenyl-ethyl)-piperazin-1-yl]-1,3-dihydro-isoindol-2-yl}-butyl)-amide]	
7.96	6.21	7.72	COc1ccc([C@@H](CCCNC(=O)C(C)C)N2C(=O)c3cccc(N4CCN([C@H](C)c5ccccc5)CC4)c3C2=O)cc1OC [Cpd 174, (R)-N-(4-(3,4-dimethoxy-phenyl)-4-{1,3-dioxo-4-[4-(1R)-(1-phenyl-ethyl)-piperazin-1-yl]-1,3-dihydro-isoindol-2-yl}-butyl)-isobutyramide]	

Further lines, the molecule ahead of its results:

SMILES	pIC50 [1]	pIC50 [2]	pKi [3]	pKi ([3]; read-out: Human UII Average Binding Ki, average value, (^125I)-U-II binding to human skeletal muscle myoblasts (HSMM), 25° C., 3 h)
CCN1CCN(c2cccc3c2C(=O)N([C@H](CCCOCc2c(F)cccc2F)c2ccc(OC)c(OC)c2)C3=O)CC1 [Cpd 227, (R)-2-[4-(2,6-difluoro-benzyloxy)-1-(3,4-dimethoxy-phenyl)-butyl]-4-(4-ethyl-piperazin-1-yl)-isoindole-1,3-dione]	6.80	5.54	< 6.52	
COc1ccc(C(CCCNS(=O)(=O)c2cc(C)oc2C(F)(F)F)N2C(=O)c3cccc(N4CCN([C@H](C)c5ccccc5)CC4)c3C2=O)cc1OC (stereo partly drawn) [Cpd 89, 5-methyl-2-trifluoromethyl-furan-3-sulfonic acid (4-(3,4-dimethoxy-phenyl)-4-{1,3-dioxo-4-[4-(1R)-(1-phenyl-ethyl)-piperazin-1-yl]-1,3-dihydro-isoindol-2-yl}-butyl)-amide]	6.27	< 5.00	6.05	
COc1ccc(C(CCCNS(=O)(=O)c2ccsc2)N2C(=O)c3cccc(N4CCN([C@H](C)c5ccccc5)CC4)c3C2=O)cc1OC (stereo partly drawn) [Cpd 105, thiophene-3-sulfonic acid (4-(3,4-dimethoxy-phenyl)-4-{1,3-dioxo-4-[4-(1R)-(1-phenyl-ethyl)-piperazin-1-yl]-1,3-dihydro-isoindol-2-yl}-butyl)-amide]	7.17	6.96	7.19	
COc1ccc([C@@H](CCCNC(=O)COC(C)(C)C)N2C(=O)c3cccc(N4CCN([C@H](C)c5ccccc5)CC4)c3C2=O)cc1OC [Cpd 213, (R)-2-tert-butoxy-N-(4-(3,4-dimethoxy-phenyl)-4-{1,3-dioxo-4-[4-(1R)-(1-phenyl-ethyl)-piperazin-1-yl]-1,3-dihydro-isoindol-2-yl}-butyl)-acetamide]	7.77	6.14	7.27	
COc1ccc(CN2C(=O)c3ccc(N4CCN([C@H](C)c5ccccc5)CC4)cc3C2=O)cc1OC [Cpd 226, 2-(3,4-dimethoxy-benzyl)-5-[4-(1R)-(1-phenyl-ethyl)-piperazin-1-yl]-isoindole-1,3-dione]	5.00	< 5.00	< 6.52	
COc1ccc([C@@H](CCCNC(=O)c2cnoc2C)N2C(=O)c3cccc(N4CCN([C@H](C)c5ccccc5)CC4)c3C2=O)cc1OC [Cpd 144, (R)-5-methyl-isoxazole-4-carboxylic acid (4-(3,4-dimethoxy-phenyl)-4-{1,3-dioxo-4-[4-(1R)-(1-phenyl-ethyl)-piperazin-1-yl]-1,3-dihydro-isoindol-2-yl}-butyl)-amide]	7.96	6.12		6.89
COC(=O)c1csc(S(=O)(=O)NCCCC(c2ccc(OC)c(OC)c2)N2C(=O)c3cccc(N4CCN([C@H](C)c5ccccc5)CC4)c3C2=O)c1OC (stereo partly drawn) [Cpd 88, 5-(4-(3,4-dimethoxy-phenyl)-4-{1,3-dioxo-4-[4-(1R)-(1-phenyl-ethyl)-piperazin-1-yl]-1,3-dihydro-isoindol-2-yl}-butylsulfamoyl)-4-methoxy-thiophene-3-carboxylic acid methyl ester]	6.49	< 5.52	6.46	
COc1ccc([C@@H](CCCNS(=O)(=O)c2sc(C)nc2C)N2C(=O)c3cccc(N4CCN([C@H](C)c5ccccc5)CC4)c3C2=O)cc1OC [Cpd 124, (R)-2,4-dimethyl-thiazole-5-sulfonic acid (4-(3,4-dimethoxy-phenyl)-4-{1,3-dioxo-4-[4-(1R)-(1-phenyl-ethyl)-piperazin-1-yl]-1,3-dihydro-isoindol-2-yl}-butyl)-amide]	7.55	6.52	6.49	
